This note sets out measurements from publication PMC4764977, “AZD8797 is an allosteric non-competitive modulator of the human CX3CR1 receptor” (Biochemical Journal, 2016).

The assay has as its target T1, CX3CR1 (Homo sapiens, UniProt P49238).
T1 sequence (P49238 1-355): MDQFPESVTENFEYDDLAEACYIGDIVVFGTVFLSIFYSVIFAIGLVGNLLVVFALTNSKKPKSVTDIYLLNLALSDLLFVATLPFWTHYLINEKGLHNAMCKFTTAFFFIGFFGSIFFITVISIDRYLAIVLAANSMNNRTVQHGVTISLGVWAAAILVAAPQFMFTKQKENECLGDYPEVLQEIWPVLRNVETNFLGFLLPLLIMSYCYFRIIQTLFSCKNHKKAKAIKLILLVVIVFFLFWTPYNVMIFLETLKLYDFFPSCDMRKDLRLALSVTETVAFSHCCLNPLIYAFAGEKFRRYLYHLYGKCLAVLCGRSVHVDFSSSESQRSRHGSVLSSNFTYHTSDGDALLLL
Briefly: [3H]AZD8797 kinetic radioligand binding, CHO-hCX3CR1 membranes. Also noted: host or cells: CHO-K1. On the procedure:
Assays were performed as described under equilibrium binding studies with the additions stated below. Association experiments on [^3H]AZD8797 were performed by adding 1 · Kd of radioligand in assay buffer in a 96-well plate. The reactions were started by addition of CHO-hCX3CR1 membranes at different time points and then incubated for between 1.5 min and 2 h at room temperature before being filtered. For the [^3H]AZD8797 dissociation experiments 1 · Kd of radioligand was incubated with CHO-hCX3CR1 membranes for 1 h at room temperature before starting the dissociation with the addition of 10 μM unlabelled AZD8797. The reactions were incubated for between 2.5 min and 3 h at room temperature before being filtered.
For the association experiments, the radioligand data were fitted to the following monophasic exponential association equation and the association rate (kon) was calculated using the added amounts of radioligand (L) and dissociation rate (koff) as constants. koff was measured in separate dissociation experiments.
The dissociation data were fitted to the monophasic exponential decay equation: […]
where Y0 is the binding (cpm) at time zero, X is the time and NS is the (non-specific) binding at infinite times. Half-life could then be calculated by dividing ln (2) by koff. Multiple compound dissociation data were fitted to the biphasic exponential decay equation: […]

In general, koff refers to the rate constant with which the complex falls apart. High values mean fast dissociation, low ones slow dissociation. As a reminder, the kon is the second-order rate constant of association. One may read the Kd as the free concentration of one partner at which half of the binding sites on the other are occupied at equilibrium, for simple one-to-one binding. As for `CC(C)C[C@H](CO)Nc1nc(S[C@@H](C)c2ccccc2)nc2nc(N)sc12` [AZD8797], for the setting “dissociation started with 10 μM unlabelled AZD8797, n=2”, the off-rate (koff) is 0.0007 s⁻¹. For the same molecule, the kon (from kobs (n=5) and koff, room temperature) is 233000 M⁻¹ s⁻¹. The Dissociation half-life result (from koff) is “approximately 17 min”. Besides, the Kd (koff/kon, read-out: Kd from rate constants) was found to be 2.9 nM.
